The values that follow come from patent publication US20130017600A1, “ISOLATION AND/OR PRESERVATION OF DENDRITIC CELLS FOR PROSTATE CANCER IMMUNOTHERAPY” (NORTHWEST BIOTHERAPEUTICS, INC., priority 1995, published 2013).

Test [1] concerns T cells (PBMC) obtained from prostate cancer patients. The experiment in a line: T cell proliferation assay (3H-TdR incorporation) with PSMA peptide alone. In kind it is cell-based, human. The procedure: One hundred thousand previously frozen T cells (designated “PBMC”) obtained from a prostate cancer patient were cultured in the presence or absence of 20
PSMA peptide in complete medium containing 10% heat-inactivated human serum and 1 unit/ml IL2. One μCi/well ^3H-Thymidine was added on day 6 and cultures were harvested 18 hours later. ^3H-TdR incorporation was counted in a liquid scintillation counter. Each experiment was done in 4 replicates.
One hundred thousand T cells, i.e. PBMC obtained from HLA-A2(+) or HLA-A2(−) prostate cancer patients were cultured in the presence or absence (i.e. “medium control”) of 20 μg PSM-P2 peptide for five (5) days in a humidified, 37° C., 5% CO2 incubator. On day 6, 1 μCi ^3H-Thymidine was added to each well. After another 24 h incubation, cells were harvested and the ^3H-TdR incorporated was counted in a liquid scintillation counter. Each experiment was done in triplicate. Results are presented in FIG. 10 as average cpm and standard error of the mean.

The subject of test [2] is T cells proliferated as a result of the PSMA peptide. The experiment in a line: Flow cytometric analysis (CD4/CD8) of T cells proliferated as a result of the PSMA peptide. In kind it is cell-based, human. As to conditions: expanded 5 days with 2 μM peptide and 1 unit/ml IL2; FIG. 9. The procedure: The T cells proliferated as a result of the PSMA peptide were expanded in culture for 5 days, in complete medium containing 2 μM PSMA peptide and 1 unit/ml Il2 for 5 days prior to harvest. One million cells were incubated for 30 minutes on ice with anti-CD4, anti-CD8 antibodies or medium alone, followed by another 30 minute incubation with fluorescein isothiocyanate labelled-2° antibody. Fluorescence-bound was analyzed in a FACScan (Becton Dickinson, San Jose, Calif.) flow cytometer as described above. The percent CD4+ and CD8+ cells were calculated. Results are illustrated in FIG. 9.
(In general: A flow cytometer gives signals particle by particle.)

For test [3], the system named is late stage prostate cancer patients. The experiment in a line: Phase 1 clinical trial: T cell proliferation pre- and post-infusion (stimulation ratio). Conditions: 7 days after first infusion; all patients of the group; FIG. 11. The format is in vivo, human. The protocol: A phase 1 clinical trial has been established using five treatment groups of late stage prostate cancer patients. The groups were treated as follows: Group I, received peptide PSM-P1 having amino acid sequence LLHETDSAV (SEQ. ID. NO 1) only at 0.2, 2.0 and 20.0 μg; Group II, peptide PSM-P2 having amino acid sequence ALFDIESKV (SEQ. ID. NO. 2) only at 0.2, 2.0 and 20.0 μg; Group III, 1×10^6 (#3-4) or 5×10^6 (#1, 2) autologous dendritic cells only; Group IV, up to 2×10^7 autologous dendritic cells loaded with PSM-P1 (SEQ. ID. NO. 1); and Group V, up to 2×10^7 autologous DC's loaded with PSM-P2 (SEQ. ID. NO. 2). All treatments were delivered by infusion. Patients were monitored 7 days post-infusion and their immune function was analyzed by assessing T cell proliferation pre- and post-infusion using ^3H-TdR incorporation as described above in Section 9.

Test [4] deals with previously frozen T cells (PBMC) of a prostate cancer patient. The experiment in a line: T cell proliferation assay with previously cryopreserved autologous dendritic cells and purified PSMA. As to conditions: previously cryopreserved DC's plus 5 μl/well purified PSMA; vs antigen alone or DC's alone; FIG. 6. In kind it is cell-based, human. The protocol:
Dendritic cells were isolated from PBMC of a prostate cancer patient as described above in Section 6 and cultured, as described above, in Section 6, for 7 days in the presence of 500 units/ml GM-CSF and IL-4.
On day 7, the isolated DC's were harvested and cryopreserved using 90% fetal calf serum and 10% dimethylsulfoxide. The cryopreserved DC's were stored frozen for a period of time, thawed in a 37° C. water bath and transferred to a 15 ml polypropylene tube and centrifuged at 1200 rpm for 5 min. The thawed DC's were then resuspended in medium containing 10% heat-inactivated human serum and counted.
One hundred thousand previously frozen T cells obtained from peripheral blood of the same prostate cancer patient (PBMC) were cultured in the presence or absence of 10^4 DC's together with 5 μl/well purified PSMA (see Section 6.1.4 above) in a total volume of 200 μl medium containing 10% heat-inactivated human serum and 1 unit/ml IL-2. One μCi/well ^3H-Thymidine was added on day 6 and cultures were harvested 18 hours later. ^3H-TdR incorporation was counted in a liquid scintillation counter. Each experiment was done in 4 replicates. The average cpm and standard deviation are shown in the graph.

Test [5] deals with previously cryopreserved autologous T cells (PBMC) of a prostate cancer patient. The experiment in a line: T cell proliferation assay with extended life span (EBV-transformed) dendritic cells. The format is cell-based, human. Conditions: antigen presented by extended life span DC's; TT 500 ng/ml or LNCaP lysate equivalent of 10^4 cells/ml; FIG. 7.

On to “ALFDIESKV [PSM-P2, peptide corresponding to amino acid residues 711-719 of PSMA]”, for which the “T cell proliferation (3H-TdR incorporation), HLA-A2(−) T cells” value in test [1] (20 μg peptide, 5 days, FIG. 10) is on record as “less dramatic enhanced T cell proliferation”. Also, the “T cell proliferation (3H-TdR incorporation), HLA-A2(+) T cells” value in test [1] (20 μg peptide, 5 days, vs medium control, FIG. 10) is listed as “greatly enhanced cell proliferation”.

Regarding “LLHETDSAV [PSM-P1, peptide corresponding to amino acid residues 4-12 of PSMA]”, in test [1] (PBMC of a prostate cancer patient with peptide vs absence of peptide, FIG. 8), the “T cell proliferation (3H-TdR incorporation)” value is given as “greatly enhanced T cell proliferation”. Further, in test [2], the “CTL's share of the T cells stimulated by the peptide” value was “about 41%”. In addition, the “increase in T cell proliferation post- vs pre-infusion” value in test [3] is reported as “did not demonstrate any increase in T cell proliferation”.

On to “PSMA: purified prostate specific membrane antigen, immunoprecipitated from human semen with monoclonal antibody 7E11-C5”, for which the “3HTdR incorporation (T cell proliferation)” value in test [4] is given as “highly significant increase”; in test [5], “significantly increased”.
